For one test, the target named is histone deacetylase (HDAC Enzyme). Kind of test: Inhibition of Histone Deacetylase Enzymatic Activity (Boc-Lys(Ac)-AMC, Fluor-de-Lys developer). The test is classed as biochemical. The note with it: Table 9; read-out: HDAC Inhibition (IC50 μM) HDAC Enzyme. Here is the method: The following protocol is used to assay the compounds of the invention.
The mixture is pre-incubated for 5 minutes at room temperature. The reaction is started by bringing the temperature to 37° C. and adding 16 μl substrate. Total reaction volume is 50 μl.
In the Tables 8, 9 and 10, A≦[…]<B≦0.1 μM; 0.1 μM<C≦1 μM; and 1 μM<D≦10 μM.
`CC(C)OC(=O)N1C[C@@H]2C[C@H]1CN2c1ncc(C(=O)NO)cn1` [(1S,4S)-isopropyl 5-(5-(hydroxycarbamoyl)pyrimidin-2-yl)-2,5-diazabicyclo[2.2.1]heptane-2-carboxylate]: the IC50 (commonly the concentration at which inhibition is half-maximal) was below 0.05 µM.
For the compound `O=C(NO)c1cnc(N2C[C@@H]3C[C@H]2CN3C(=O)OC2CCCC2)nc1` [(1S,4S)-cyclopentyl 5-(5-(hydroxycarbamoyl)pyrimidin-2-yl)-2,5-diazabicyclo[2.2.1]heptane-2-carboxylate], the IC50 is below 0.05 µM.
As to `O=C(NO)c1cnc(N2C[C@@H]3C[C@H]2CN3c2cccc(SC(F)(F)F)c2)nc1` [N-hydroxy-2-((1S,4S)-5-(3-(trifluoromethylthio)phenyl)-2,5-diazabicyclo[2.2.1]heptan-2-yl)pyrimidine-5-carboxamide], the IC50 is below 0.05 µM.
With `COc1cccc(N2C[C@@H]3C[C@H]2CN3c2ncc(C(=O)NO)cn2)c1` [N-hydroxy-2-((1S,4S)-5-(3-methoxyphenyl)-2,5-diazabicyclo[2.2.1]heptan-2-yl)pyrimidine-5-carboxamide], the IC50 is below 0.05 µM.
Same read-out and setting: then `Cc1ccccc1N1C[C@@H]2C[C@H]1CN2c1ncc(C(=O)NO)cn1` [N-hydroxy-2-((1S,4S)-5-o-tolyl-2,5-diazabicyclo[2.2.1]heptan-2-yl)pyrimidine-5-carboxamide], with 0.05 to 0.1 µM; and `O=C(NO)c1ccc(N2C[C@@H]3C[C@H]2CN3c2cccc(C(F)(F)F)c2)cc1` [N-hydroxy-4-((1S,4S)-5-(3-(trifluoromethyl)phenyl)-2,5-diazabicyclo[2.2.1]heptan-2-yl)benzamide], with 0.1 to 1 µM; and `O=C(NO)c1cnc(N2C[C@@H]3C[C@H]2CN3c2ccc(F)cc2)nc1` [2-((1S,4S)-5-(4-fluorophenyl)-2,5-diazabicyclo[2.2.1]heptan-2-yl)-N-hydroxypyrimidine-5-carboxamide], with 0.05 to 0.1 µM.
On to `O=C(NO)c1cnc(N2C[C@@H]3C[C@H]2CN3C(=O)c2cccc(C(F)(F)F)c2)nc1` [N-hydroxy-2-((1S,4S)-5-(3-(trifluoromethyl)benzoyl)-2,5-diazabicyclo[2.2.1]heptan-2-yl)pyrimidine-5-carboxamide], for which the IC50 fell in the range of 0.05 to 0.1 µM.
As for `O=C(NO)c1cnc(N2C[C@@H]3C[C@H]2CN3c2cccc(OC(F)F)c2)nc1` [2-((1S,4S)-5-(3-(difluoromethoxy)phenyl)-2,5-diazabicyclo[2.2.1]heptan-2-yl)-N-hydroxypyrimidine-5-carboxamide], the IC50 was below 0.05 µM.
Take `O=C(NO)c1cnc(N2C[C@@H]3C[C@H]2CN3c2cccc3nonc23)nc1` [2-((1S,4S)-5-(benzo[c][1,2,5]oxadiazol-4-yl)-2,5-diazabicyclo[2.2.1]heptan-2-yl)-N-hydroxypyrimidine-5-carboxamide]: the IC50 is below 0.05 µM.
Turning to `O=C(NO)c1cnc(N2C[C@@H]3C[C@H]2CN3c2ccc3c(c2)OCO3)nc1` [2-((1S,4S)-5-(benzo[d][1,3]dioxol-5-yl)-2,5-diazabicyclo[2.2.1]heptan-2-yl)-N-hydroxypyrimidine-5-carboxamide], the IC50 was below 0.05 µM.

The test is the same for the next values; noted with them: Table 10; read-out: HDAC Inhibition (IC50 μM) HDAC Enzyme.
`O=C(CN1c2ccccc2C=Cc2ccccc21)NO` [(Z)-2-(5H-dibenzo[b,f]azepin-5-yl)-N-hydroxyacetamide]: the IC50 lay in the range of 1 to 10 µM.
On to `O=C(NO)c1cnc(NC(c2ccccc2)c2ccccc2)nc1` [2-(benzhydrylamino)-N-hydroxypyrimidine-5-carboxamide], for which the IC50 was below 0.05 µM.
Take `O=C(NO)c1cnc(OC(c2ccc(F)cc2)c2ccc(F)cc2)nc1` [2-(bis(4-fluorophenyl)methoxy)-N-hydroxypyrimidine-5-carboxamide]: the IC50 is 0.1 to 1 µM.
With `O=C(CCc1ccc(CN2C(=O)c3ccccc3Oc3ccccc32)cc1)NO` [N-hydroxy-3-(4-((11-oxodibenzo[b,f][1,4]oxazepin-10(11H)-yl)methyl)phenyl)propanamide], the IC50 fell in the range of 0.1 to 1 µM.
On the same count and under the same terms, the result for `O=C(C=C1c2ccccc2CCc2ccccc21)NO` reads 1 to 10 µM.
The same measure, in the same setting: the result for `O=C(CCCON=C1c2ccccc2CCc2ccccc21)NO` reads 0.1 to 1 µM.
Consider `O=C(NO)c1cnc(N2CCCN(C(=O)OCc3ccccc3)CC2)nc1` [benzyl 4-(5-(hydroxycarbamoyl)pyrimidin-2-yl)-1,4-diazepane-1-carboxylate], for which the IC50 lay in the range of 0.05 to 0.1 µM.
Regarding `O=C(NO)c1ccc(CNC(c2ccccc2)c2ccccc2)cc1` [4-((benzhydrylamino)methyl)-N-hydroxybenzamide], the IC50 was below 0.05 µM.
With `O=C(NO)c1cnc(NC(c2ccc(F)cc2)c2ccc(F)cc2)nc1` [2-(bis(4-fluorophenyl)methylamino)-N-hydroxypyrimidine-5-carboxamide], the IC50 was below 0.05 µM.
Still for that read-out and setting: then `O=C(CCCCCCC(=O)N1c2ccccc2C=Cc2ccccc21)NO` [(Z)-8-(5H-dibenzo[b,f]azepin-5-yl)-N-hydroxy-8-oxooctanamide], with 0.1 to 1 µM; and `O=C(NO)c1ccc(CNC2c3ccccc3CCc3ccccc32)cc1`, with below 0.05 µM.
In the case of `O=C(CCCCCCCN1C(=O)c2cccnc2N(C2CC2)c2ccccc21)NO` [8-(11-cyclopropyl-5-oxo-5H-benzo[b]pyrido[2,3-e][1,4]diazepin-6(11H)-yl)-N-hydroxyoctanamide], the IC50 lay in the range of 0.1 to 1 µM.
Consider `O=C(NO)c1ccc(CN2C(=O)c3ccccc3Oc3ccccc32)cc1` [N-hydroxy-4-((11-oxodibenzo[b,f][1,4]oxazepin-10(11H)-yl)methyl)benzamide], for which the IC50 is below 0.05 µM.
Consider `O=C(CCCCCCOc1nc2ccccc2c2ccccc12)NO` [N-hydroxy-7-(phenanthridin-6-yloxy)heptanamide], for which the IC50 was below 0.05 µM.
As for `O=C(/C=C/c1ccc2c(c1)C=Cc1ccccc1N2CC1CC1)NO` [(E)-3-((Z)-5-(cyclopropylmethyl)-5H-dibenzo[b,f]azepin-2-yl)-N-hydroxyacrylamide], the IC50 lay in the range of 0.1 to 1 µM.
Still for that read-out and setting: then `O=C(NO)c1cnc(N2CCn3c(nnc3C(F)(F)F)C2)nc1` [N-hydroxy-2-(3-(trifluoromethyl)-5,6-dihydro-[1,2,4]triazolo[4,3-a]pyrazin-7(8H)-yl)pyrimidine-5-carboxamide], with 0.05 to 0.1 µM; and `O=C(NO)c1cnc(ON=C(c2ccccc2)c2ccccc2)nc1` [2-(diphenylmethyleneaminooxy)-N-hydroxypyrimidine-5-carboxamide], with 1 to 10 µM; and `O=CN(O)CCCCCCN1C(=O)c2ccccc2Oc2ccccc21` [N-hydroxy-N-(6-(11-oxodibenzo[b,f][1,4]oxazepin-10(11H)-yl)hexyl)formamide], with below 0.05 µM.
Turning to `O=C(CCCCN1c2ccccc2C=Cc2ccccc21)NO` [(Z)-5-(5H-dibenzo[b,f]azepin-5-yl)-N-hydroxypentanamide], the IC50 fell in the range of 0.1 to 1 µM.
As to `O=C(/C=C/c1ccc(CN2c3ccccc3C=Cc3ccccc32)cc1)NO` [(E)-3-(4-(((Z)-5H-dibenzo[b,f]azepin-5-yl)methyl)phenyl)-N-hydroxyacrylamide], the IC50 fell in the range of 0.05 to 0.1 µM.

The same test, now with this note: read-out: HDAC Inhibtion (IC50 μM) HDAC Enzyme.
Consider `O=C(NO)c1ccc(C2=Nc3ccccc3Oc3ccccc32)nc1` [(E)-6-(dibenzo[b,f][1,4]oxazepin-11-yl)-N-hydroxynicotinamide], for which the IC50 fell in the range of 0.1 to 1 µM.
`O=C(NO)c1ccc(C2=Nc3ccccc3Oc3ncccc32)cc1` [(Z)-4-(benzo[b]pyrido[3,2-f][1,4]oxazepin-5-yl)-N-hydroxybenzamide]: the 50% inhibitory concentration (IC50) lay in the range of 0.05 to 0.1 µM.
Still for that read-out and setting: the result for `O=C(NO)c1ccc(C2=Nc3c(F)cccc3Oc3ccccc32)cc1` [(Z)-4-(9-fluorodibenzo[b,f][1,4]oxazepin-11-yl)-N-hydroxybenzamide] reads 0.05 to 0.1 µM.
Regarding `O=C(NO)c1ccc(C2=Nc3ccccc3Cn3cccc32)cc1` [(Z)-4-(5H-benzo[e]pyrrolo[1,2-a][1,4]diazepin-11-yl)-N-hydroxybenzamide], the IC50 is below 0.05 µM.
Turning to `O=C(NO)c1ccc(C2=Nc3ccccc3Oc3c(OCCN4CCOCC4)cccc32)cc1` [(Z)-N-hydroxy-4-(4-(2-morpholinoethoxy)dibenzo[b,f][1,4]oxazepin-11-yl)benzamide], the IC50 is below 0.05 µM.
Turning to `CCN1c2ccccc2N=C(c2ccc(C(=O)NO)cc2)c2cccnc21` [(Z)-4-(11-ethyl-11H-benzo[b]pyrido[2,3-e][1,4]diazepin-5-yl)-N-hydroxybenzamide], the IC50 is below 0.05 µM.
Still for that read-out and setting: then `COc1cc(F)cc2c1Oc1ccccc1N=C2c1ccc(C(=O)NO)cc1` [(Z)-4-(2-fluoro-4-methoxydibenzo[b,f][1,4]oxazepin-11-yl)-N-hydroxybenzamide], with below 0.05 µM; and `COc1ccc2c(c1)Oc1ccccc1N=C2c1ccc(C(=O)NO)cc1` [(Z)-N-hydroxy-4-(3-methoxydibenzo[b,f][1,4]oxazepin-11-yl)benzamide], with 0.1 to 1 µM; and `O=C(NO)c1ccc(C2=Nc3ccccc3Oc3cccc(F)c32)cc1` [(Z)-4-(1-fluorodibenzo[b,f][1,4]oxazepin-11-yl)-N-hydroxybenzamide], with below 0.05 µM.
Turning to `O=C(NO)c1ccc(C2=Nc3ccccc3Oc3ccccc32)cc1` [(Z)-4-(dibenzo[b,f][1,4]oxazepin-11-yl)-N-hydroxybenzamide], the IC50 was below 0.05 µM.
Take `O=C(NO)c1ccc(C2Nc3ccccc3Oc3ccccc32)cc1` (stereo not drawn) [4-(10,11-dihydrodibenzo[b,f][1,4]oxazepin-11-yl)-N-hydroxybenzamide]: the IC50 is below 0.05 µM.
`Cc1ccc2c(c1)Oc1ccccc1N=C2c1ccc(C(=O)NO)cc1` [(Z)-N-hydroxy-4-(3-methyldibenzo[b,f][1,4]oxazepin-11-yl)benzamide]: the IC50 is below 0.05 µM.
Turning to `O=C(NO)c1ccc(C2=Nc3ccccc3N(CCN3CCOCC3)c3ccccc32)cc1` [(Z)-N-hydroxy-4-(5-(2-morpholinoethyl)-5H-dibenzo[b,e][1,4]diazepin-11-yl)benzamide], the IC50 was 0.1 to 1 µM.
Turning to `O=C(NO)c1ccc(C2=Nc3cc(Cl)ccc3Nc3ccccc32)cc1` [(Z)-4-(8-chloro-5H-dibenzo[b,e][1,4]diazepin-11-yl)-N-hydroxybenzamide], the IC50 is 0.05 to 0.1 µM.

For the origin of these results see US8399452B2, “Dibenzo[b,f][1,4]oxazepin-11-yl-N-hydroxybenzamides as HDAC inhibitors” (Methylgene Inc., priority 2006, dated 2013).
